{
  "source": "patent EP2910557A1",
  "about": "“Enantiopure tetrasubstituted pyrrolidines as scaffolds for proteasome inhibitors and medicinal applications thereof” (Ikerchem, S.L., priority 2014, dated 2015)",
  "key": {"A549": {"system": "A549", "assay": "Cancer cell growth inhibition, 72 h treatment", "assay_type": "cell-based", "conditions": "Homo sapiens, Lung cancer A549, Alamar Blue", "description": "(§1) Cell culture-based assays were used to evaluate the ability of compounds of the invention to inhibit cancer cell growth.\n(§2) Cells were obtained from the American Type Culture Collection (ATCC) and the European Collection of Cell Cultures. Cells were thawed in their appropriate media plus supplements (see table below). Cells were passaged at confluence by washing once in HBSS cation-free followed by a 3 minutes incubation with trypsin ([0.5 µg/ml]/EDTA [0.2 µg/ml]) (Gibco-BRL, 15400054) solution in HBSS at 37°C (except non-adherent cell lines - hematologic), and transferred to their appropriate media plus supplements. Prior to seeding at defined cell concentration, cells were recovered in medium, centrifuged, taken up in medium and counted.\n(§3) All treatments were performed in triplicate. Experiments were carried out in 96-well cell culture plates (Cultek) and the cell lines seeded at the density mentioned in the table above and cultured at 37°C with 5% CO2. After 24h, media were supplemented by 100 µl/well of diluted test compound at variable final concentrations and incubated for 72 hours. Then, AlamarBlue® Reagent (Biosource DAL1100) was added to each well and incubated at 37°C for 4 hours. Relative fluorescent intensity that correlates with the number of living cells was read in a Cytofluor plate reader (Millipore) at 535/590 nm (Excitation/emission). After reading the AlamarBlue® signal, the hexosaminidase activitity was measured according to the following protocol: medium was removed and cells were washed once with PBS. 60 µl of substrate solution (p-nitrophenol-N-acetyl-beta-D-glucosaminide 7.5 mM [Sigma N-9376], sodium citrate 0.1 M, pH 5.0, 0.25% Triton X-1 00) was added to each well and incubated at 37°C for 1-2 hours; after this incubation time, a bright yellow colour appears; then, plates could be developed by adding 90 µl of developer solution (Glycine 50 mM, pH 10.4; EDTA 5 mM), and absorbance was recorded at 405 nm.\n(§4) Note: In all cases assays were performed in Alamar Blue with the exception of those indicated (* = Hexosaminidase assay)"}, "NCI-H1975": {"system": "NCI-H1975", "assay": "Cancer cell growth inhibition, 72 h treatment", "assay_type": "cell-based", "conditions": "Homo sapiens, Lung cancer NCI-H1975, Alamar Blue", "description": "as §1, §2, §3, §4"}, "MIA PaCa-2": {"system": "MIA PaCa-2", "assay": "Cancer cell growth inhibition, 72 h treatment", "assay_type": "cell-based", "conditions": "Homo sapiens, Pancreatic cancer MIA PaCa-2, Alamar Blue", "description": "as §1, §2, §3, §4"}, "U-373 MG": {"system": "U-373 MG", "assay": "Cancer cell growth inhibition, 72 h treatment", "assay_type": "cell-based", "conditions": "Homo sapiens, U373 MG, Brain U-373 MG, Alamar Blue", "description": "as §1, §2, §3, §4"}, "MDA-MB-468": {"system": "MDA-MB-468", "assay": "Cancer cell growth inhibition, 72 h treatment", "assay_type": "cell-based", "conditions": "Homo sapiens, Breast cancer MDA-MB-468, Alamar Blue", "description": "as §1, §2, §3, §4"}, "OVCAR-3": {"system": "OVCAR-3", "assay": "Cancer cell growth inhibition, 72 h treatment", "assay_type": "cell-based", "conditions": "Homo sapiens, Ovarian cancer OVCAR-3, Alamar Blue", "description": "as §1, §2, §3, §4"}, "Jurkat": {"system": "Jurkat", "assay": "Cancer cell growth inhibition, 72 h treatment", "assay_type": "cell-based", "conditions": "Homo sapiens, Hematologic Jurkat, Alamar Blue", "description": "as §1, §2, §3, §4"}, "MCF-7": {"system": "MCF-7", "assay": "Cancer cell growth inhibition, 72 h treatment", "assay_type": "cell-based", "conditions": "Homo sapiens, MCF7, Breast cancer MCF-7, Alamar Blue", "description": "as §1, §2, §3, §4"}, "SW480": {"system": "SW480", "assay": "Cancer cell growth inhibition, 72 h treatment", "assay_type": "cell-based", "conditions": "Homo sapiens, Colon cancer SW480, Alamar Blue", "description": "as §1, §2, §3, §4"}, "NCI-H1650": {"system": "NCI-H1650", "assay": "Cancer cell growth inhibition, 72 h treatment", "assay_type": "cell-based", "conditions": "Homo sapiens, Lung cancer NCI-H1650, Alamar Blue", "description": "as §1, §2, §3, §4"}, "SK-OV-3": {"system": "SK-OV-3", "assay": "Cancer cell growth inhibition, 72 h treatment", "assay_type": "cell-based", "conditions": "Homo sapiens, Ovarian cancer SK-OV-3, Alamar Blue", "description": "as §1, §2, §3, §4"}, "DU-145": {"system": "DU-145", "assay": "Cancer cell growth inhibition, 72 h treatment", "assay_type": "cell-based", "conditions": "Homo sapiens, Prostate cancer DU-145, Alamar Blue", "description": "as §1, §2, §3, §4"}, "K562": {"system": "K562", "assay": "Cancer cell growth inhibition, 72 h treatment", "assay_type": "cell-based", "conditions": "Homo sapiens, Hematologic K562, Alamar Blue", "description": "as §1, §2, §3, §4"}, "CCRF-CEM": {"system": "CCRF-CEM", "assay": "Cancer cell growth inhibition, 72 h treatment", "assay_type": "cell-based", "conditions": "Homo sapiens, Hematologic CCRF-CEM, Alamar Blue", "description": "as §1, §2, §3, §4"}, "MDA-MB-231": {"system": "MDA-MB-231", "assay": "Cancer cell growth inhibition, 72 h treatment", "assay_type": "cell-based", "conditions": "Homo sapiens, Breast cancer MDA-MB-231, Alamar Blue", "description": "as §1, §2, §3, §4"}, "Daoy": {"system": "Daoy", "assay": "Cancer cell growth inhibition, 72 h treatment", "assay_type": "cell-based", "conditions": "Homo sapiens, Brain Daoy, Alamar Blue", "description": "as §1, §2, §3, §4"}, "HCT-116": {"system": "HCT-116", "assay": "Cancer cell growth inhibition, 72 h treatment", "assay_type": "cell-based", "conditions": "Homo sapiens, Colon cancer HCT-116, Alamar Blue", "description": "as §1, §2, §3, §4"}, "RPMI-8226": {"system": "RPMI-8226", "assay": "Cancer cell growth inhibition, 72 h treatment", "assay_type": "cell-based", "conditions": "Homo sapiens, Multiple mieloma RPMI-8226, Alamar Blue", "description": "as §1, §2, §3, §4"}, "HepG2": {"system": "HepG2", "assay": "Cancer cell growth inhibition, 72 h treatment", "assay_type": "cell-based", "conditions": "Homo sapiens, Liver cancer HepG2, Alamar Blue", "description": "as §1, §2, §3, §4"}, "SK-HEP-1": {"system": "SK-HEP-1", "assay": "Cancer cell growth inhibition, 72 h treatment", "assay_type": "cell-based", "conditions": "Homo sapiens, SK-HEP1, Liver cancer SK-HEP-1, Alamar Blue", "description": "as §1, §2, §3, §4"}, "U-87 MG": {"system": "U-87 MG", "assay": "Cancer cell growth inhibition, 72 h treatment", "assay_type": "cell-based", "conditions": "Homo sapiens, Brain U-87 MG, Hexosaminidase assay (*)", "description": "as §1, §2, §3, §4"}, "HT-1080": {"system": "HT-1080", "assay": "Cancer cell growth inhibition, 72 h treatment", "assay_type": "cell-based", "conditions": "Homo sapiens, Fibrosarcoma HT-1080, Alamar Blue", "description": "as §1, §2, §3, §4"}, "LS174T": {"system": "LS174T", "assay": "Cancer cell growth inhibition, 72 h treatment", "assay_type": "cell-based", "conditions": "Homo sapiens, Colon cancer LS174T, Alamar Blue", "description": "as §1, §2, §3, §4"}, "[1]": {"molecular_target": "T1, Human erythrocyte 20S proteasome (Homo sapiens, UniProt P28074)", "T1 construct": "Enzyme: Human erythrocyte 20S proteasome; from tissue; host or cells: human erythrocytes", "assay": "In vitro enzymatic assay of proteasome inhibitory activity (Suc-Leu-Leu-Val-Tyr-AMC substrate)", "assay_type": "biochemical", "description": "Example 20: In vitro enzymatic assay of proteasome inhibitory activity.\nSubstrate: Suc-Leu-Leu-Val-Tyr-AMC\nAssay buffer: 250 mM HEPES, pH 7.5, 0.5 mM EDTA, 0.03% SDS, 0.05% Igepal CA-630.\nEnzyme: Human erythrocyte 20S proteasome\nIn vitro proteasome inhibitory activity of the compounds of the invention is evaluated by spectrofluorimetric quantitation of AMC. Stock solutions of compounds of the invention are prepared in dimethyl sulphoxide (DMSO). Test compound and/or vehicle is preincubated with […] enzyme (human erythrocyte 20S proteasome) in modified HEPES buffer pH 7.5 and 1% final concentration of DMSO for 15 minutes at 37°C. The reaction is initiated by addition of 10 µM Suc-Leu-Leu-Val-Tyr-AMC for another 30 minutes incubation period at 37°C. Determination of the release of AMC is read spectrophotometrically (excitation, 380 nm; emission, 460 nm). IC50 values are determined by a non-linear, least squares regression analysis using MathlQTM (ID Business Solutions Ltd., UK)."}},
  "data": [
    {"compound": "CC(C)C[C@H](NC(=O)[C@@H]1N[C@H](c2ccc3ccccc3c2)[C@@H]([N+](=O)[O-])[C@@H]1c1ccccc1)B(O)O", "note": "[Example 12, (R)-3-methyl-1-((2R,3R,4S,5R)-5-(naphthalen-2-yl)-4-nitro-3-phenylpyrrolidine-2-carboxamido)butylboronic acid]", "values": [
      {"measurement": "EC50", "setting": "A549", "value": 5800, "unit": "nM"},
      {"measurement": "EC50", "setting": "NCI-H1975", "value": 780, "unit": "nM"},
      {"measurement": "EC50", "setting": "MIA PaCa-2", "value": 1900, "unit": "nM"},
      {"measurement": "EC50", "setting": "U-373 MG", "value": 11000, "unit": "nM"},
      {"measurement": "EC50", "setting": "MDA-MB-468", "value": 1000, "unit": "nM"},
      {"measurement": "EC50", "setting": "OVCAR-3", "value": 330, "unit": "nM"},
      {"measurement": "EC50", "setting": "Jurkat", "value": 800, "unit": "nM"},
      {"measurement": "EC50", "setting": "MCF-7", "value": 1300, "unit": "nM"},
      {"measurement": "EC50", "setting": "SW480", "value": 560, "unit": "nM"},
      {"measurement": "EC50", "setting": "NCI-H1650", "value": 370, "unit": "nM"},
      {"measurement": "EC50", "setting": "SK-OV-3", "value": 1400, "unit": "nM"},
      {"measurement": "EC50", "setting": "DU-145", "value": 350, "unit": "nM"},
      {"measurement": "EC50", "setting": "K562", "value": 2700, "unit": "nM"},
      {"measurement": "EC50", "setting": "CCRF-CEM", "value": 140, "unit": "nM"},
      {"measurement": "EC50", "setting": "MDA-MB-231", "value": 3200, "unit": "nM"},
      {"measurement": "EC50", "setting": "Daoy", "value": 570, "unit": "nM"},
      {"measurement": "EC50", "setting": "HCT-116", "value": 440, "unit": "nM"},
      {"measurement": "EC50", "setting": "RPMI-8226", "value": 310, "unit": "nM"},
      {"measurement": "EC50", "setting": "HepG2", "value": 500, "unit": "nM"},
      {"measurement": "EC50", "setting": "SK-HEP-1", "value": 160, "unit": "nM"},
      {"measurement": "EC50", "setting": "U-87 MG", "value": 2000, "unit": "nM"},
      {"measurement": "EC50", "setting": "HT-1080", "value": 460, "unit": "nM"},
      {"measurement": "EC50", "setting": "LS174T", "value": 260, "unit": "nM"},
      {"measurement": "inhibition at 0.05 µM", "setting": "[1]; Concentration 50 nM", "value": 50, "unit": "%"},
      {"measurement": "IC50", "setting": "[1]; human erythrocyte 20S proteasome, 10 µM Suc-Leu-Leu-Val-Tyr-AMC, 37°C", "value": 46, "unit": "nM"}
    ]}
  ]
}
